According to patent publication US20100169988A1, “MEANS AND METHODS FOR ISOLATING AND DETERMINING NOVEL TARGETS FOR THE TREATMENT OF NEURODEGENERATIVE, NEUROLOGICAL OR NEUROPSYCHIATRIC DISORDERS AND COMPOSITIONS COMPRISING THE SAME” (priority 2006, published 2010):

Target: T1, γ-secretase (Homo sapiens, UniProt P49768)
T1 construct: endogenous in cells; host or cells: cells transfected with α-/β-CTF-Citrine constructs
Experiment: Subcellular localization of Citrine-labeled α-CTF/β-CTF constructs
Assay type: cell-based
Conditions: Hek 293 cells transfected with α-CTF or β-CTF Citrine constructs
From the text: In a first step, the CTF constructs alone were transfected, without any additional influence on subcellular localization and an entirely homogeneous distribution of Citrine fluorescence throughout the cell was observed. Like APP, these constructs first require cleavage of the signal peptide by Signal Peptidase. However, these “precleaved” CTFs never require ectodomain-shedding in the conventional sense of α- or β-secretase cleavage, which is time consuming not only because of the cleavage step alone, but because of the protein trafficking required to make APP accessible to the secretases. PS cleavage was therefore assumed to take place much more rapidly than is the case for wtAPP, whereupon the same experiments were performed with γ-secretase inhibitor L-685,458 aiming at prolonging the half-life of the uncleaved CTFs. […] Apart from this stabilization, however, no obvious difference was discerned between the subcellular localization of the two constructs.
Subcellular protein distribution of fluorescently tagged proteins or proteins stained as described supra was analyzed on a Leica TCS/SP2 confocal microscope. Pictures were acquired at a resolution of 1024×1024 using the 63×H2O immersion objective. Typically, 5-8 z-axis sections were recorded across the entire height of embedded cells so that typical section separations were 0.5 μm. […]

CC(C)C[C@H](NC(=O)[C@H](Cc1ccccc1)C[C@@H](O)[C@H](Cc1ccccc1)NC(=O)OC(C)(C)C)C(=O)N[C@@H](Cc1ccccc1)C(N)=O [L-685,458]
subcellular localization of uncleaved CTF-Citrine: accumulation in ER and Golgi was observed
